Values belong to the molecule of their own block, whether it stands above or below them. Active and inactive are the calls of the source.
Legend:
[1] = Late stage counterscreen results from the probe development effort to identify activators of signal transducer and activator of transcription 1 (STAT1): luminescence-based cell-based dose response assay to identify cytotoxic compounds.; assay type: functional
[2] = Luminescent dose response cell-based high throughput screening assay for inhibitors of the Janus kinase 2 mutant JAK2V617F. [Related pubchem assays: 1446 (Primary screen.), 1521 (Confirmation assay.), 1486 (Counter screen.)]; assay type: functional
[3] = NIH-3T3 fibroblast cytotoxicity, dose response, cytotoxicity control, cell-based, fluorescence, Alamar Blue, secondary assay (AID 2327); assay type: functional;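 further: NIH-3T3 mouse fibroblasts cultured with fluconazole at 8 µg/mL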
[4] = fluconazole-exposed Candida albicans growth modulators – fluorescence, retest, confirmation (AID 2467); assay type: functional, cell-based
[5] = target: Induced myeloid leukemia cell differentiation protein Mcl-1 (Homo sapiens, UniProt Q07820); assay type: functional
[6] = target: T1, Mannose-6-phosphate isomerase (Homo sapiens, UniProt P34949); test: MPI inhibition at elevated mannose 6-phosphate – biochemical, fluorescence intensity, high mannose 6-phosphate, primary screen (AID 1220)
T1 sequence (P34949 whole entry): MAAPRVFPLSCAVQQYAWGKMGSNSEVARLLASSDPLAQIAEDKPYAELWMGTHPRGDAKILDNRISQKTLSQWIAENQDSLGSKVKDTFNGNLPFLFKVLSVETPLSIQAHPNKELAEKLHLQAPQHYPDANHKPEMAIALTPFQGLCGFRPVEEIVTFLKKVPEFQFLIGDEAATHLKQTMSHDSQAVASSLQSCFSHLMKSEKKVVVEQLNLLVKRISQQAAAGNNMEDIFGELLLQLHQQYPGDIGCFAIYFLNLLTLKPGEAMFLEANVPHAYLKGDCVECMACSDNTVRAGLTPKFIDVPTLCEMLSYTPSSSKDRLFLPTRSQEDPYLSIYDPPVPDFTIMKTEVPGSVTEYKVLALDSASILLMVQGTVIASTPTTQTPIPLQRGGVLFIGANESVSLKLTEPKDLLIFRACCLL

[7] = target: T2, Histone-lysine N-methyltransferase NSD2 (Homo sapiens, UniProt O96028); assay type: biochemical
T2 sequence (O96028 whole entry): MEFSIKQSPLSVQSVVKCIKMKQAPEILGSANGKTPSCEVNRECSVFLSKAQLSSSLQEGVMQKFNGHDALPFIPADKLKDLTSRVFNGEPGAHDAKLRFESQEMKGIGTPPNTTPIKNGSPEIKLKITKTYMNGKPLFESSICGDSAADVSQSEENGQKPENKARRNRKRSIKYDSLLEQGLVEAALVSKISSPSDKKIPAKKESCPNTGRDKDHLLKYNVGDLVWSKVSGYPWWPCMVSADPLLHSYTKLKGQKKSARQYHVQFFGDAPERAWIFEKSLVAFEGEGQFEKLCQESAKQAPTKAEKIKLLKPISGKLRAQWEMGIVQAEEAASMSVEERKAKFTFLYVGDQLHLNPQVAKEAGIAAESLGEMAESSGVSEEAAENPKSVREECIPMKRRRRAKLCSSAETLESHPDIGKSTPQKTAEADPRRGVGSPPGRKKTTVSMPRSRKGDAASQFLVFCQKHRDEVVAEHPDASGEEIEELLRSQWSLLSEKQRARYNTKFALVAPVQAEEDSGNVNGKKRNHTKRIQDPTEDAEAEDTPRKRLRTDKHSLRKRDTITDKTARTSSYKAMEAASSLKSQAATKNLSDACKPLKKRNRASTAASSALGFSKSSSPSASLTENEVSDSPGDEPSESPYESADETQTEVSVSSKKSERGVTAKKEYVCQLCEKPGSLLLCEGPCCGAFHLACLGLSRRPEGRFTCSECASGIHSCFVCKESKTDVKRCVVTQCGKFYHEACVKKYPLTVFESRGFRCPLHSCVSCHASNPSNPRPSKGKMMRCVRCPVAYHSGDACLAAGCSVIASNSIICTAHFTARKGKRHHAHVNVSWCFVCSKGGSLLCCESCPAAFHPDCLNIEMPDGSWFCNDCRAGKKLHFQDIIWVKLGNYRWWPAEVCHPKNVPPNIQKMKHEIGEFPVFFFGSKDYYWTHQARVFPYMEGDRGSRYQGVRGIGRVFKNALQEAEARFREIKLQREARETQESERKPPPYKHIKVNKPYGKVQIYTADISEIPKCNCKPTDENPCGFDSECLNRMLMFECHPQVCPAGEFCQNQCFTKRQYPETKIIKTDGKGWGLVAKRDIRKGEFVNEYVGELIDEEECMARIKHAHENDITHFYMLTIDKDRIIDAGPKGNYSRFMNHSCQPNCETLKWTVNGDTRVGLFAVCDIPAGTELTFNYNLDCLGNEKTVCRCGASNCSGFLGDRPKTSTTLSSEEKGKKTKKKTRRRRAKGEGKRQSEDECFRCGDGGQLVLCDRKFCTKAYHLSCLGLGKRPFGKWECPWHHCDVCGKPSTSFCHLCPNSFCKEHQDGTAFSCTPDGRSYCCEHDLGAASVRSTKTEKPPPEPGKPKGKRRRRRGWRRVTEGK

[8] = target: Voltage-gated inwardly rectifying potassium channel KCNH2 (Homo sapiens, UniProt Q12809); test: concentration-dependent hERG rescue from blockers – cell-based, thallium flux, dose response (AID 2121); assay type: ADME
Aspartyl aminopeptidase = Aspartyl aminopeptidase (Plasmodium falciparum 3D7, UniProt Q8I2J3); test: Counterscreen for inhibitors of M1 and M17 aminopeptidases: QFRET-based biochemical high throughput dose response assay for inhibitors of the Plasmodium falciparum M18 Aspartyl Aminopeptidase (PFM18AAP). [Related PubChem assays: 1619 (Screening assay (M17LAP inhibitors).), 1445 (Screening assay (M1AAP inhibitors).)]
Aminopeptidase N = target: T3, Aminopeptidase N (Plasmodium falciparum FcB1/Columbia, UniProt O96935); test: malaria alanyl aminopeptidase activity blockers – biochemical, fluorogenic H-Leu-NHMec substrate, 1536-well (AID 1445); parameters: species or system Plasmodium falciparum 3D7, 3D7
T3 sequence (O96935 whole entry): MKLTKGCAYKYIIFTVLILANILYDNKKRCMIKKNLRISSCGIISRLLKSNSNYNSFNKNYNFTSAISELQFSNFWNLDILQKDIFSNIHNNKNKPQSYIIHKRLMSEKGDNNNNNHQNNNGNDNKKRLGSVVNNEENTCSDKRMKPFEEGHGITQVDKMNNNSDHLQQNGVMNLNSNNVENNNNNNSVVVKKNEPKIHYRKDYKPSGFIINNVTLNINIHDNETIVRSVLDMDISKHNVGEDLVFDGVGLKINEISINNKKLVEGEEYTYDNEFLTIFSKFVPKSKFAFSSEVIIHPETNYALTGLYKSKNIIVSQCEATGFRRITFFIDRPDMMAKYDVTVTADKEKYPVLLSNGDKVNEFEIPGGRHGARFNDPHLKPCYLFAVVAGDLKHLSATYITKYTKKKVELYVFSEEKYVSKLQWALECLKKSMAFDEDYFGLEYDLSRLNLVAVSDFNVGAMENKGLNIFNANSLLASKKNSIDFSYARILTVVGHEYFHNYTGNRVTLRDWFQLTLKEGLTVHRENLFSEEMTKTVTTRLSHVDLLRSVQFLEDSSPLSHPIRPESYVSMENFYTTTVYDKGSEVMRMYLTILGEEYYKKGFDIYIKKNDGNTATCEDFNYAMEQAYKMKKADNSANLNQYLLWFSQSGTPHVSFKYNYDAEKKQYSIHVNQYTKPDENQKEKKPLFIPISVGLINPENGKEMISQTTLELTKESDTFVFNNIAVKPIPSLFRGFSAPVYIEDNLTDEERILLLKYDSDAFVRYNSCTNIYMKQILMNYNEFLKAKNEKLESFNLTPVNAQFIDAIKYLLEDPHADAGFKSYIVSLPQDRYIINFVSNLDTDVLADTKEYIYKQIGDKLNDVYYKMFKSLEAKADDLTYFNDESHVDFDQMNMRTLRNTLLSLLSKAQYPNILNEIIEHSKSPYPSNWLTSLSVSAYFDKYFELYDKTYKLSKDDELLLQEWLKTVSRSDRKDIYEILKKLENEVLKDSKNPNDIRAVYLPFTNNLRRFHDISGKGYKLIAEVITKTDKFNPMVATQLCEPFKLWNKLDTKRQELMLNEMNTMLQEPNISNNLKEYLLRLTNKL

[9] = target: Peroxisome proliferator-activated receptor gamma/Nuclear receptor coactivator 1 (Homo sapiens, UniProt P37231); test: (§1) TR-FRET dose response biochemical High Throughput Screening assay for agonists of the steroid receptor coactivator 1 (SRC-1) recruitment by the peroxisome proliferator-activated receptor gamma (PPAR gamma): non-selective agonists. [Related pubchem assays (depositor defined):AID1300, AID1808, AID504735, AID631]; assay type: protein assay
[10] = target: Peroxisome proliferator-activated receptor gamma/Nuclear receptor coactivator 3 (Homo sapiens, UniProt P37231); test: as §1, with “3 (SRC-3)” for “1 (SRC-1)”, “assays: 1301 (Confirmation screen.), 1048 (Primary screen.)]” for “assays (depositor defined):AID1300, AID1808, AID504735, AID631]”; assay type: functional
Procathepsin L = Procathepsin L (Homo sapiens, UniProt P07711); test: CTSL1 protease inhibition – biochemical, QFRET, 1536-well, counter-screen for M1/M17 aminopeptidase inhibitor project, dose response (AID 2214)
[11] = target: Peroxisome proliferator-activated receptor gamma/Nuclear receptor coactivator 2 (Homo sapiens, UniProt P37231); test: TR-FRET dose response biochemical High Throughput Screening assay for agonists of the steroid receptor coactivator 2 (SRC-2) recruitment by the peroxisome proliferator-activated receptor gamma (PPAR gamma): non-selective agonists. [Related pubchem assays: 1297, 1032 ]; assay type: functional
[12] = target: T4, Corticotropin-releasing factor receptor 2/Corticotropin-releasing factor-binding protein (Homo sapiens, UniProt P24387+Q13324); test: Dose Response confirmation of uHTS hits for small molecule antagonists of the CRF-binding protein and CRF-R2 receptor complex.; assay type: functional; conditions: read-out: IC50_Mean
T4 sequence (Q13324 whole entry): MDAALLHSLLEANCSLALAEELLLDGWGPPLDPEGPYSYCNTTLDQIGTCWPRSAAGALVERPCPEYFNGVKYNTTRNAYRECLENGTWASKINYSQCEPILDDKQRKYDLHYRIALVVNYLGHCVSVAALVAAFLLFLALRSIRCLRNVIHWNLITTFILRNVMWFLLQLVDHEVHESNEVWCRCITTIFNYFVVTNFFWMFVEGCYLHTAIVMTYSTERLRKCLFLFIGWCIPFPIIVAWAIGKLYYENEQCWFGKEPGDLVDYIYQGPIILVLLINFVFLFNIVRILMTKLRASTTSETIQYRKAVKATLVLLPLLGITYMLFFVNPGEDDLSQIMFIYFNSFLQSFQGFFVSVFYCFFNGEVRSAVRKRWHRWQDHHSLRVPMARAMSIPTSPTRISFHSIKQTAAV
T4 sequence (P24387 whole entry): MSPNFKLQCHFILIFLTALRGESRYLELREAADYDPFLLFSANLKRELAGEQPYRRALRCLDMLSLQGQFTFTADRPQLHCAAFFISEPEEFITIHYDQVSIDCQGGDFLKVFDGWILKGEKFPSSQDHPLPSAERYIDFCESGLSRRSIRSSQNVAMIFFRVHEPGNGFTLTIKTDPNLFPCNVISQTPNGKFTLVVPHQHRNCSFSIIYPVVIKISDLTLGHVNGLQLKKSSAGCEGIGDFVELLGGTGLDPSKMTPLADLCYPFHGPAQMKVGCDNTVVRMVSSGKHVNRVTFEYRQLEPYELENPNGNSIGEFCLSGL

[13] = target: T4, Corticotropin-releasing factor receptor 2/Corticotropin-releasing factor-binding protein; test: activators of CRF receptor 2 with binding protein – uHTS hits, confirmation (AID 602473); assay type: functional; conditions: read-out: EC50_Mean

Aspartyl aminopeptidase, sequence (Q8I2J3 whole entry): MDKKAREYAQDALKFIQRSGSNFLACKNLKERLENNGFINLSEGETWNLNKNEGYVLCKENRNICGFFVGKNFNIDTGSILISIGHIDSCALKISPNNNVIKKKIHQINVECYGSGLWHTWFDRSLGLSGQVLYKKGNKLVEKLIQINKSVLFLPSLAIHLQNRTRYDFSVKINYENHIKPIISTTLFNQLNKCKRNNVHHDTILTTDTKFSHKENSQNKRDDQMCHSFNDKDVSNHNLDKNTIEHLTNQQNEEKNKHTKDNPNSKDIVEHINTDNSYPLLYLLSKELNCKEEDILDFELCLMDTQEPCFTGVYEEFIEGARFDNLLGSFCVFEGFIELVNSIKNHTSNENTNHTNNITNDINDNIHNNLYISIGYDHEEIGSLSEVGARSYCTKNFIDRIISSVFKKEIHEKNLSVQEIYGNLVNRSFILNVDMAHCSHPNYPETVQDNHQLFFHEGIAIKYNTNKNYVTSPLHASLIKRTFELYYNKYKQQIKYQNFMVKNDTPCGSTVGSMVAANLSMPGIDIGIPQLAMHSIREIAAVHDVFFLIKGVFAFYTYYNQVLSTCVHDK
Induced myeloid leukemia cell differentiation protein Mcl-1, sequence (Q07820 whole entry): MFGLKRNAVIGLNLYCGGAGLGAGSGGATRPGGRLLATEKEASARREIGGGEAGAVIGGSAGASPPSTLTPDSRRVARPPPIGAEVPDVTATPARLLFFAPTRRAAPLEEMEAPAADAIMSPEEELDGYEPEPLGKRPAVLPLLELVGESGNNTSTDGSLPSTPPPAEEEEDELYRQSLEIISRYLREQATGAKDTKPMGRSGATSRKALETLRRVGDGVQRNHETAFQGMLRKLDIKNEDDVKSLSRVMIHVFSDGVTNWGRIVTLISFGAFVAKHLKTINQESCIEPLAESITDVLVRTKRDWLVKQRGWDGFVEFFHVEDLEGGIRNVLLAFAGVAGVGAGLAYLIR
Voltage-gated inwardly rectifying potassium channel KCNH2, sequence (Q12809 whole entry): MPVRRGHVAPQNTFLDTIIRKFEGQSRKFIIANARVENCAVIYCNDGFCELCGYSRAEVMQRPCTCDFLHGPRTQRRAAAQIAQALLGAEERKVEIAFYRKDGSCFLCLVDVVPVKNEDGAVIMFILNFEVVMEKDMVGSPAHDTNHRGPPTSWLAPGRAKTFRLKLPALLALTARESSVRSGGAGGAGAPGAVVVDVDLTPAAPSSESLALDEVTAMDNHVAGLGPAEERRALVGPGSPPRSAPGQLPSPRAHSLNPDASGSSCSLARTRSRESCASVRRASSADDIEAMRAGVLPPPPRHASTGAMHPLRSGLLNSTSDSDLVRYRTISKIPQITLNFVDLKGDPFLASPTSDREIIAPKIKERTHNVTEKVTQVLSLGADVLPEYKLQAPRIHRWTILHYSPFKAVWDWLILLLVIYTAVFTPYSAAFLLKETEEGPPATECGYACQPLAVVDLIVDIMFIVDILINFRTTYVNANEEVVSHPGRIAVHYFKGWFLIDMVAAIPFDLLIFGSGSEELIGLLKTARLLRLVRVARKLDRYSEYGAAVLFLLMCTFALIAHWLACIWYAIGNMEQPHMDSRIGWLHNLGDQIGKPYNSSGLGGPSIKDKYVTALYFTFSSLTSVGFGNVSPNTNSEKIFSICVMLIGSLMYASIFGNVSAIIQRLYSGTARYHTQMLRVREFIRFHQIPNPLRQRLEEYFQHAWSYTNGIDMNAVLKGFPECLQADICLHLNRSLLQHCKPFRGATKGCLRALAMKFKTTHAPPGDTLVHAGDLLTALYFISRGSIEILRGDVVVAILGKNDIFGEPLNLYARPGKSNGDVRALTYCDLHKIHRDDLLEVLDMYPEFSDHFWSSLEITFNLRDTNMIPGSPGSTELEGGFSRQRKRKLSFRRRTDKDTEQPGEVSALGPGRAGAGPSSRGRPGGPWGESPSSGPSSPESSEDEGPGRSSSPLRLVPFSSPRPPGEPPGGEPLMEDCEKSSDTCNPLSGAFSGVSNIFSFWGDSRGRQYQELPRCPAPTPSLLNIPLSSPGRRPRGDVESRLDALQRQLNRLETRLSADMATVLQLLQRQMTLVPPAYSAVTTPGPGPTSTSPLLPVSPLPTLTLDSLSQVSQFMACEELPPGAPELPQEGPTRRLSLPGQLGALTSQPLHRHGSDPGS
Peroxisome proliferator-activated receptor gamma/Nuclear receptor coactivator 1, sequence (P37231 whole entry): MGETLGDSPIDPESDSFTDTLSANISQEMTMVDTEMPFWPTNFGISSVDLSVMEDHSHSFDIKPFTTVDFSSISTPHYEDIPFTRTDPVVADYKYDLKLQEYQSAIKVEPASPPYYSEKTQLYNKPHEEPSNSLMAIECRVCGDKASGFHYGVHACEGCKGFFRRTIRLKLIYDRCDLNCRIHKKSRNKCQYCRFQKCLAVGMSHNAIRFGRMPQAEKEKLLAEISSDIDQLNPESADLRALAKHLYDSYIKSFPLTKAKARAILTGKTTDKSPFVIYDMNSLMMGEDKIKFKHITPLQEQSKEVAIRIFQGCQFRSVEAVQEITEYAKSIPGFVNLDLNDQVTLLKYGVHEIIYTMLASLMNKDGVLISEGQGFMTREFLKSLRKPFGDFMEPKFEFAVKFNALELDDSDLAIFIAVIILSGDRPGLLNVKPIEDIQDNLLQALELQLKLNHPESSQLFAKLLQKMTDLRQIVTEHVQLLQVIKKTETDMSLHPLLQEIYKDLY
Peroxisome proliferator-activated receptor gamma/Nuclear receptor coactivator 1, sequence (Q15788 whole entry, further chain): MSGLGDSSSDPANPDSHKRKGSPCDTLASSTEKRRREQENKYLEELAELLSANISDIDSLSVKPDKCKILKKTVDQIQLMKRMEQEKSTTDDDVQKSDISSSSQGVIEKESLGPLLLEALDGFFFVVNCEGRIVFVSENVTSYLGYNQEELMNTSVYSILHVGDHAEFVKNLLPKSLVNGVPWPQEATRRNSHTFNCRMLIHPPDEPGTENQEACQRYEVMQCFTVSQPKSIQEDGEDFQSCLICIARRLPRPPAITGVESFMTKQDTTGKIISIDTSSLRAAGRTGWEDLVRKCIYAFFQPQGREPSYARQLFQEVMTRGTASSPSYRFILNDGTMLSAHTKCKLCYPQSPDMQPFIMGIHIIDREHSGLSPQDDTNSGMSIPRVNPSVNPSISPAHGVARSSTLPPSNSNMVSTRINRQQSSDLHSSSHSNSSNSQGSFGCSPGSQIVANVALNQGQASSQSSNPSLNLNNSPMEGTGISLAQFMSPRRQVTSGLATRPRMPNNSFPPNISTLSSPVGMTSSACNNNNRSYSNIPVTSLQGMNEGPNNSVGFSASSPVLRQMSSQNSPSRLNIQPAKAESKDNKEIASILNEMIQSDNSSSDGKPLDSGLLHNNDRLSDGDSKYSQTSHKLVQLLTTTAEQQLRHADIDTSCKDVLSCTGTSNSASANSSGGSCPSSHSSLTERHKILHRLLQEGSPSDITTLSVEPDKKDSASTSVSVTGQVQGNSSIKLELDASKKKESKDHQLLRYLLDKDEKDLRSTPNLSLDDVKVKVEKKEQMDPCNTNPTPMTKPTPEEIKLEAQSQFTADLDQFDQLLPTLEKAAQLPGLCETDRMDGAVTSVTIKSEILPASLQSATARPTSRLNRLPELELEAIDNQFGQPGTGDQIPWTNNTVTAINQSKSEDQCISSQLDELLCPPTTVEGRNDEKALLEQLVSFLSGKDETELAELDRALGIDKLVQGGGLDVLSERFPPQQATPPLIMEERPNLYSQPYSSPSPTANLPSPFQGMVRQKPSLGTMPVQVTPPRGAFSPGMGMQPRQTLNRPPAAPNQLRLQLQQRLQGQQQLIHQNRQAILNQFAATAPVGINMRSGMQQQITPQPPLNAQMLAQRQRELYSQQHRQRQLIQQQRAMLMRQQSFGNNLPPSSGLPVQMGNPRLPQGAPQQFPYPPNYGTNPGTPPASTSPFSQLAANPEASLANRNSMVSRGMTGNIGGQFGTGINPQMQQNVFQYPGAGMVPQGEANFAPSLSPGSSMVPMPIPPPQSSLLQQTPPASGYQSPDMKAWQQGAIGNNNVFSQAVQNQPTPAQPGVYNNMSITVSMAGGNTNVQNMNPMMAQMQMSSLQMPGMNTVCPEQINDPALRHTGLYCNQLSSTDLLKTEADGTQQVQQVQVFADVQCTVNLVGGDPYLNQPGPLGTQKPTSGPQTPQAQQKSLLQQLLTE
Procathepsin L, sequence (P07711 whole entry): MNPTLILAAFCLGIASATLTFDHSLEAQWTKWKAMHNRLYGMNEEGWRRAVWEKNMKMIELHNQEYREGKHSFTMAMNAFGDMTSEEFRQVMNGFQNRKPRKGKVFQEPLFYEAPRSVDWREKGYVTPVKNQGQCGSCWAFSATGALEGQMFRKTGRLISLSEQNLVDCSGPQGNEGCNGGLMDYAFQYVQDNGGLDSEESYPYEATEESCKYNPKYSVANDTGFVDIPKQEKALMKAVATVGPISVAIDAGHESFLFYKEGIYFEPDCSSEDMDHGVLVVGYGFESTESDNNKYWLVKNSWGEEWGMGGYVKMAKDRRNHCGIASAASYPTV

Structure (SMILES): COc1ccc(-c2csc(N3C(=O)CNC3=S)n2)cc1
- IC50 [1]: > 55.7 µM (not active)

Structure (SMILES): Cc1c(Cc2ccccc2)c(=O)oc2c(O)c(O)ccc12
- IC50 [2]: 2.67 µM (active)
- EC50 [3]: 18.7 µM (active)
- EC50 [4]: 2.73 µM (active)
- IC50 [5]: 11.7 µM (not active)
- IC50 [6]: 29.6 µM (active)
- AC50 [7]: > 20 µM (inactive)

Structure (SMILES): Cc1onc(-c2ccccc2)c1C(=O)NC(=S)Nc1sc2c(c1C#N)CCC(C)C2 (stereo unspecified)
- EC50 [8]: 0.86 µM (active)

- IC50 (Aspartyl aminopeptidase): 39.5 µM (not active)
- IC50 (Aminopeptidase N): 4.08 µM (active)
- EC50 [9]: > 79.4 µM (inactive)
- EC50 [10]: > 79.4 µM (not active)
- IC50 (Procathepsin L): 31.8 µM (not active)
- EC50 [11]: 41 µM (not active)
- IC50 [12]: < 0.368 µM (active)
- EC50 [13]: > 53 µM (inactive)
Structure (SMILES): O=C1Nc2ccccc2/C1=C1/SC(=S)N(NC(=O)c2cccc(O)c2)C1=O
